Laboratory results from article PMC11578372, “ProT‐Diff: A Modularized and Efficient Strategy for De Novo Generation of Antimicrobial Peptide Sequences by Integrating Protein Language and Diffusion Models” (Advanced Science, 2024).
Read-outs that look alike come from different tables or passages of the source. Where no end group is shown, it is not given here.

What was measured:
[1] = 1 µg mL−1 (0.35 µM); cited from earlier work
Source text: (§1) In general, a higher antimicrobial potency in antimicrobial peptides often correlates with an elevated risk of heightened cytotoxicity and hemolytic activity. […] However, even at a ...

E. coli [2] = conditions: cited from earlier work
Source text: as §1

human cell = conditions: 10 µg mL−1 (3.5 µM); cited from earlier work
Source text: as §1

E. coli mgrB mutant 23# = test: Lethal murine acute peritonitis model; format: in vivo, mouse (female BALB/c); conditions: for survival versus PBS treatment group (log-rank test): AMP_2 single IP dose, penicillin 50000 units per kg every 12 h for 3 d
Procedure: Female BALB/c mice weighing ≈18 g and aged 5–6 weeks were used to build a lethal murine acute peritonitis model according to previously established protocols.^[ [43], [44], [45] ^] The mice were subjected to intraperitoneal injections with E. colimgrB mutant 23^#suspension (0.2 mL per mouse) at concentration of 5×10^5 CFU mL^−1, 5×10^6 CFU mL^−1, 5×10^7 CFU mL^−1, respectively. […] Each group comprised of eight mice.
Subsequently, the mice were administered varying doses of AMP_2 (0.125, 0.25, 0.5, 1, 2, and 4 mg kg^−1) immediately after infection. As controls, the infected mice received intraperitoneal injections of sterile PBS or underwent penicillin treatment (0.2 mL per mouse). The single dose of penicillin administered was 50000 units per kg, and the mice received antibiotic treatment every 12 h for 3 d. The behavior and survival of the animals were monitored over a 7‐day period. Blood samples were collected from the mice before euthanasia for routine blood tests. The experiments were conducted in groups of eight mice.

E. coli [3] = format: cell-based, Escherichia coli
Procedure: (§2) For the MIC determination of selected AMPs, 100 ul bacterial culture with an OD600 value of ≈0.1 was incubated with AMPs at concentrations ranging from 0 to 100 µM at 37 °C for 15–18 h. Herein, the MIC was determined as the minimum concentration of AMPs at which no detectable bacterial growth was observed.
(§3) All experiments were conducted with a minimum of four independent replicates. Student's t‐test was used to compare the means between the experimental and control groups (two‐sided).

all tested bacteria = format: cell-based
Source text: Gram‐negative bacteria include E. coli DH5α, E. coli O157: H7 CICC 21530, S. typhimurium CICC 21484, A. baumannii AB6, and P. aeruginosa ATCC 15442. Gram‐positive bacteria included S. aureus ATCC 33591, Methicillin‐resistant MRSA ATCC 43300, B. subtilis ATCC 9372. L. sphaericus CCM 2177. Two E. coli clinical isolates with mgrB mutations from Tongji Hospital (Wuhan, China) were used in this study, namely E. coli mgrB mutant 2^# and E. coli mgrB mutant 23^#.
as §2, §3

[4] = Cytotoxicity against mammalian cells (CCK-8); format: cell-based; conditions: human, 293T, CCK-8, n = 6, read-out: half maximal inhibitory concentration (IC50), cytotoxicity
Procedure: Cell Counting Kit 8 (CCK‐8) assay was used to assess the cytotoxicity of the AMPs against mammalian cells. Specifically, ≈4000 293T cells were seeded per well in a 96‐well cell culture plate (Corning, US), and were incubated at 37 °C with 5% CO2 for 24 h. Subsequently, the culture medium was replaced by different concentrations of AMPs solution diluted with the medium. The cells were co‐incubated with AMPs solution for an additional 24 h at 37 °C. And then, 10 µl of the CCK‐8 reagent (Beijing Lablead Biotech, China) was added to each well for 2 h of incubation at 37 °C. Finally, OD at 450 nm was measured using an imaging multimode microplate reader (Cytation 3, BioTek, US). Cell viability was defined as the percentage of each concentration relative to the control. Six replicates were used for the CCK‐8 assay.

E. coli DH5α = test: TEM of cell membrane damage; format: cell-based, Escherichia coli; conditions: 1× MIC, 2–8 h, 37 °C
Procedure: Transmission Electron Microscopy (TEM) was employed to assess the cell membrane damage induced by AMPs. First, 50 µL of E. coli DH5α culture with an OD600 of ≈0.1 were mixed with 50 µL of AMPs solution (at 1× MIC) in a 96‐well plate. This mixture was incubated at 37 °C for 2, 4, 8, and 16 h. Following the incubation period, the bacteria were pelleted by centrifugation at 6,000 rpm for 5 min and fixed with 2.5% (vol/vol) glutaraldehyde in phosphate buffer (PB, 0.1 M, pH 7.4). Subsequently, the cells were postfixed with 1% (wt/vol) osmium tetraoxide in PB for 2 h at 4 °C, and were dehydrated through a graded ethanol series (30%, 50%, 70%, 80%, 90%, 100%, with each step lasting 7 min) before being put in pure acetone by two 10‐min steps. Following dehydration, the samples were subjected to infiltration using progressively mixed combinations of acetone and SPI‐PON812 resin (composed of 16.2 g SPI‐PON812, 10 g DDSA, and 8.9 g NMA) in ratios of 3:1, 1:1, and 1:3. The infiltration medium was then replaced with pure resin. Finally, the cells were embedded in pure resin containing 1.5% BDMA and polymerized for 12 h at 45 °C, followed by an additional 48 h polymerization at 60 °C. Ultrathin sections (70 nm thick) were obtained using a microtome (Leica EM UC6), double‐stained with uranyl acetate and lead citrate, and examined using a transmission electron microscope (FEI Tecnai Spirit 120 kV).

Substance: melittin
- hemolysis of cells [1]: 50%
- MIC (E. coli [2]): 1 to 15 µM
- human cell death (human cell): > 50%

Substance: penicillin [reference compound]
- survival versus PBS treatment group (log-rank test) (E. coli mgrB mutant 23#; 8 mice per group): no significant difference

Substance: KWKFFKKIRKVGKKIRKVIKKIGKAVGAAAQAAGQAANA [AMP_2]
- MIC (E. coli [3]): 2.5 µM
- MIC / spectrum against the tested bacteria (all tested bacteria): ≤ 20 µM
- IC50 at 24 h [4]: > 40 µM
- bacterial morphology by TEM (E. coli DH5α): serious leakage of cellular contents
- body weight by the sixth day post-infection (E. coli mgrB mutant 23#; 4 mg kg−1 IP, surviving infected mice): slight decrease in body weight
- survival versus PBS treatment group (log-rank test) (E. coli mgrB mutant 23#; 8 mice per group): significant differences in survival
- routine blood components, treatment versus control group (E. coli mgrB mutant 23#; blood collected before euthanasia, infected mice treated with AMP_2): not significantly different
- protection of infected mice (survival) (E. coli mgrB mutant 23#; single IP dose 0.5 mg kg−1 immediately after infection, 5×10^5 CFU mL−1, 7-day observation, 8 mice per group): complete protection
